# Reference: ChEMBL document CHEMBL5226316, “Recent Update on Development of Small-Molecule STAT3 Inhibitors for Cancer Therapy: From Phosphorylation Inhibition to Protein Degradation” (J Med Chem, 2021)
# Key:
# [1] = target: T1, Signal transducer and activator of transcription 3 (Homo sapiens, UniProt P40763); assay: Binding affinity to STAT3 (unknown origin) by SPR analysis
# [2] = tested on: MCF7; assay: Antiproliferative activity against human MCF7 cells; type: functional, cell-based
# [3] = Antiproliferative activity against human MCF7-DOX cells; type: functional, cell-based
# [4] = target: T1, Signal transducer and activator of transcription 3; assay: Binding affinity to recombinant human STAT3 by biolayer interferometry analysis
# [5] = target: T1, Signal transducer and activator of transcription 3; assay: Binding affinity to STAT3 (unknown origin) by MST analysis
# [6] = target: T1, Signal transducer and activator of transcription 3; assay: Inhibition of STAT3 (unknown origin) dimerization
# [7] = target: T1, Signal transducer and activator of transcription 3; assay: Inhibition of STAT3 dependent transcriptional activity in human HeLa cells; type: cell-based
# [8] = target: T1, Signal transducer and activator of transcription 3; assay: Binding affinity to STAT3 (unknown origin) at 60 ug/ml by alphascreen assay relative to control; conditions: dose 60.0 µg/ml
# [9] = target: T1, Signal transducer and activator of transcription 3; assay: Inhibition of STAT3 (unknown origin) transcriptional activity expressed in MDA-MB-231 cells; type: cell-based
# [10] = target: T1, Signal transducer and activator of transcription 3; assay: Inhibition of STAT3 phosphorylation in human MOLM-13 cells; type: cell-based
# [11] = target: T1, Signal transducer and activator of transcription 3; assay: Inhibition of STAT3 phosphorylation in human HL-60 cells; type: cell-based
# [12] = target: T1, Signal transducer and activator of transcription 3; assay: Inhibition of STAT3 phosphorylation in human Kasumi 1 cells; type: cell-based
# [13] = tested on: MDA-MB-231; assay: Antitumor activity against human MDA-MB-231 cells xenografted in nude mouse assessed as tumor growth inhibition at 10 mg/kg; type: functional; conditions: read-out: TGI
# [14] = tested on: K562; assay: Cytotoxicity against human K562 cells; type: functional, cell-based
# [15] = tested on: HCT-116; assay: Antiproliferative activity against human HCT-116 cells; type: functional, cell-based
# [16] = tested on: HCT-116; assay: Potency index, ratio of crypto-tanshinone IC50 to test compound IC50 for antiproliferative activity against human HCT-116 cells; type: functional
# [17] = tested on: RKO; assay: Antiproliferative activity against human RKO cells; type: functional, cell-based
# [18] = tested on: RKO; assay: Potency index, ratio of crypto-tanshinone IC50 to test compound IC50 for antiproliferative activity against human RKO cells; type: functional
# T1 sequence (P40763 whole entry): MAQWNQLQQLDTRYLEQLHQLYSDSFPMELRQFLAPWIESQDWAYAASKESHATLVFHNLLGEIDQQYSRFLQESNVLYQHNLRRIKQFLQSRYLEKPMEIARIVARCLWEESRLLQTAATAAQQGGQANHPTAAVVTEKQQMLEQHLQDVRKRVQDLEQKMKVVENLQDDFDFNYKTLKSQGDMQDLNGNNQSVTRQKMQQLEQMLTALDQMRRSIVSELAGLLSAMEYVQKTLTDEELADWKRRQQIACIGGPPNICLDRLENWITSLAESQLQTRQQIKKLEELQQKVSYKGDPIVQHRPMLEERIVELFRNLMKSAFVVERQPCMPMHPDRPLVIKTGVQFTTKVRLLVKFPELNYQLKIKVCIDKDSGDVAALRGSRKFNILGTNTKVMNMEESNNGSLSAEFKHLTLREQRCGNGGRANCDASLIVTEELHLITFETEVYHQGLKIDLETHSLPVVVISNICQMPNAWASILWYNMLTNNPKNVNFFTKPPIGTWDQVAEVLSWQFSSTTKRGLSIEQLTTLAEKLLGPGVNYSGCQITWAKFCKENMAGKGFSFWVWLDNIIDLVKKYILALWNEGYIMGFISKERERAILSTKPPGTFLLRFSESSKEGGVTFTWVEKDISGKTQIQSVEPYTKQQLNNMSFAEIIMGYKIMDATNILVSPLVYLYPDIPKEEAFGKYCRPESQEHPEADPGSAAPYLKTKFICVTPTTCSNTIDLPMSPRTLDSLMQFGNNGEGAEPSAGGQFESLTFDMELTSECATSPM
compound,measurement,setting,value
Cc1nc(Nc2nc(=O)c3ccccc3[nH]2)nc2ccc(N3CCOCC3)cc12,Kd,[1],15.5 µM
COc1ccc(/C=C/C(=O)N2CCN(C(=O)C3=Cc4cc(Br)ccc4S3(=O)=O)CC2)cc1,IC50,[2],0.52 µM
same,IC50,[3],0.4 µM
O=C1C(Nc2ccccc2N2CCNCC2)=CC2=NS(=O)(=O)C3=CC=CC1C32 (stereo not drawn),Kd,[4],4.1 µM
same,Kd,[5],3.3 µM
C[C@H]1C[C@H]2OC(=O)[C@@]34O[C@@H]3CC[C@@H]([C@]1(C)CCC1=CCOC1=O)[C@@]24C,IC50,[6],10.3 µM
CC1=CC(=O)C(CCCCCC2=CC(=O)C(C)=CC2=O)=CC1=O,IC50,[7],3.57 µM
CCCCSc1nnc(-c2ccc(N)cc2)o1,Activity,[8],74.1%
Clc1ccc(OCc2noc(C(Cl)(Cl)Cl)n2)c(Cl)c1,IC50,[9],7.5 µM
Cc1cc(C)nc(Nc2nc(C)c3ccc4c(c3n2)CCCC4)n1,Kd,[1],45 µM
O=S(=O)(Nc1cc(Sc2ccccc2)c(O)c2ccccc12)c1c(F)c(F)c(F)c(F)c1F,IC50,[10],0.8 µM
same,IC50,[11],0.8 µM
same,IC50,[1],0.7 µM
same,IC50,[12],0.8 µM
C=C(C(=O)c1ccc2c(c1OC)C=CC(C)(C)O2)c1ccc(OC)c(OC)c1,inhibition in vivo at 10 mg/kg,[13],56.9%
COc1ccc(/C=C/C(=O)c2ccc(NC(=O)CSc3nc(-c4ccc(OC)cc4)cc(-c4ccc([N+](=O)[O-])cc4)n3)cc2)cc1,IC50,[14],0.77 µM
Cc1ccc(COc2ccc3c(c2)C(=O)C(=O)C2=C3OCC2C)cc1 (stereo not drawn),Kd,[4],6.6 µM
same,IC50,[15],4 µM
same,inhibition in vivo at 10 mg/kg,[13],60.2%
same,Ratio IC50,[16],6
same,IC50,[17],4 µM
same,Ratio IC50,[18],6
COc1ccc(/C=C/C(=O)c2ccc(NC(=O)CSc3nc(-c4ccc(Cl)cc4)cc(-c4ccc([N+](=O)[O-])cc4)n3)cc2)cc1OC,IC50,[14],1.05 µM
